According to PMC3154276, “The Effect of the Potential PhoQ Histidine Kinase Inhibitors on Shigella flexneri Virulence” (PLoS ONE, 2011):

Experiments:
S. flexneri Sf9380 [1] = experiment: Gentamicin protection assay, HeLa cell invasion by Sf9380; type: cell-based
Protocol: (§1) The growth curve of Sf9380 treated with or without potential PhoQ inhibitors at concentration 200 µmol/L were tested. […] The gentamicin protection assay was used as a cellular model to evaluate the inhibitory effect of the four potential PhoQ inhibitors. The bacteria were treated with each of the four potential PhoQ inhibitors in a serial dilution and grown for 8 hours. Next, the bacteria were inoculated and incubated with HeLa cells for 60 min prior to the addition of gentamicin to kill extracellular bacteria. For testing intracellular growth and spreading to adjacent cell, cells were further incubated for 290 min [9]. The results of the assays were expressed as the number of bacteria recovered from gentamicin-treated cells divided by the number of inoculated bacteria added to the cell. After lysates of HeLa cells were plated, the number of CFU that formed on LB agar were counted.
(§2) Figure 6 The effects of potential PhoQ inhibitors on virulence of Shigella. […] The bacteria pre-treated with potential PhoQ inhibitor were added to HeLa cells at a multiplicity of infection of 100. Then gentamicin was added to kill extracellular bacteria and cell lysates were plated onto LB plates, and the colonies were counted. The results of the assays were expressed as the number of bacteria recovered from gentamicin-treated cells divided by the number of inoculated bacteria added to the cell. S. flexneri Sf9380 (treated without DMSO), a clinical strain with strong virulence, served as the positive control for the cell invasion assay; E. coli ATCC 25922 (treated without DMSO), an avirulent strain, served as the negative control for the cell invasion assay; bacteria treated with 0.1% DMSO (the solvent of the potential PhoQ inhibitor) also served as a control for the cell invasion assay. Values are means ± standard deviations from 6 independent wells. *p<0.01 vs. Sf9380. (A) The effects of potential PhoQ inhibitors on cell invasion of S. flexneri Sf9380 (B) The effects of potential PhoQ inhibitors on intracellular growth S. flexneri Sf9380. (C) The effects of potential PhoQ inhibitors on cell invasion of S. flexneri 2a 301 phoQ/phoP knock-out mutant.
(§3) Bacterial ability to invade HeLa cells was tested with a gentamicin protection assay. HeLa cells were grown in six-well tissue culture plates to semi-confluent monolayers (DMEM, 10% FCS, 5% CO2). Sf9380 or Sf301 ΔphoQ/phoP was treated with potential PhoQ inhibitors for 8 hours in LB at 37°C (final concentrations of 100,50,25,12.5 or 6.25 µmol/L) prior to infection. The bacteria pre-treated with potential PhoQ inhibitor without washing, were added to semi-confluent HeLa cells at a multiplicity of infection of 100, at the same time the bacteria were diluted and plated onto LB agar plates. The CFUs were counted as initial bacterial number before added into HeLa cells. Then the plates were centrifuged at 900×g for 5 minutes. After incubating at 37°C for 60 minutes (For testing intracellular growth and spreading to adjacent cell, cells were further incubated for 290 min [9].), the cells were washed three times with PBS, and gentamicin was added to the medium to a final concentration of 10 µg/ml for 20 minutes at 37°C. After the incubation, the HeLa cells in each well were lysed in 1 ml of PBS containing 0.1% Triton X-100 for 10 minutes at room temperature. The lysates were diluted and plated onto LB agar plates in triplicate. Colonies grown on LB plates were counted. The results of the assays were expressed as the number of bacteria recovered from gentamicin-treated cells divided by the number of inoculated bacteria added to the cell. The cells were inoculated with untreated Sf9380 or Sf301 ΔphoQ/phoP (treated without DMSO) as a positive control and E. coli ATCC 25922, an avirulent strain treated without DMSO, as a negative control. […]

S. flexneri Sf9380 [2] = experiment: Gentamicin protection assay, intracellular growth and spreading to adjacent cell of Sf9380; type: cell-based; conditions: 100 µmo/L; for intracellular growth and spreading to adjacent cell of Sf9380 (bacteria recovered / inoculated): further incubated 290 min, untreated Sf9380 0.12
Protocol: as §1, §2, §3

S. flexneri Sf9380 [3] = experiment: Mouse Sereny test (keratoconjunctivitis); on degree of keratoconjunctival inflammation: key: −: no disease; ±: little keratoconjunctivitis; +: mild keratoconjunctivitis; ++: keratoconjunctivitis with some purulence; +++: fully developed keratoconjunctivitis with great purulence; type: in vivo, BALB/c mice; conditions: for degree of keratoconjunctival inflammation: Sf9380 pre-treated at the concentration (I 1 12.5, I 2 25, I 3 and I 4 100 µmol/L); for eye finding at 24 hours post-infection / time by which keratoconjunctivitis was resolved: Sf9380 pre-treated with 100 µmol/L, 1×10^8 CFUs per eye; for keratoconjunctival inflammation (words, abstract): mice inoculated with pre-treated S. flexneri 9380
From the text: A Mouse Sereny test was used to investigate the inhibitory effect of the four potential PhoQ inhibitors on the virulence of S. flexneri Sf9380. The mice were infected with 1×10^8 CFUs per eye.
A Mouse Sereny test was used to evaluate the virulence of S. flexneri Sf9380 [48]. A single red colony of Sf9380 on Congo Red agar (Tryptic soy broth provided by Oxfoid Co. with 1.5% agar and 0.01% Congo red), was inoculated into LB and grown with or without potential PhoQ inhibitors (final concentration 100,50,25,12.5 or 6.25 µmol/L) at 37°C for 8 hours with constant shaking. The female BALB/c mice (about 18 g) were infected with 1×10^8 CFUs per eye. The eye of the mouse was inoculated with the bacterium with or without potential PhoQ inhibitor treatment (n = 6 mice in each group). […] In the experiment, mouse eyes inoculated with untreated Sf9380 (treated without DMSO) served as the positive control for keratoconjunctivitis, and mouse eyes inoculated with E. coli ATCC 25922 (treated without DMSO) served as the negative control. Because DMSO is the solvent of the potential PhoQ inhibitor, Sf9380 was treated with the same amount of DMSO (0.1%) as the other groups. The invasiveness of the bacteria was scored: no disease or mild irritation as “−”, + as mild conjunctivitis or late development and/or rapid clearing of symptoms, ++ as keratoconjunctivitis without purulence, and +++ as fully developed keratoconjunctivitis with purulence.

Compound | intracellular growth and spreading to adjacent cell of Sf9380 (bacteria recovered / inoculated) (S. flexneri Sf9380 [2]) | degree of keratoconjunctival inflammation (S. flexneri Sf9380 [3]; 24 h, mouse 1) | degree of keratoconjunctival inflammation (S. flexneri Sf9380 [3]; 24 h, mouse 2) | degree of keratoconjunctival inflammation (S. flexneri Sf9380 [3]; 24 h, mouse 3) | degree of keratoconjunctival inflammation (S. flexneri Sf9380 [3]; 24 h, mouse 4) | degree of keratoconjunctival inflammation (S. flexneri Sf9380 [3]; 24 h, mouse 5) | degree of keratoconjunctival inflammation (S. flexneri Sf9380 [3]; 24 h, mouse 6) | degree of keratoconjunctival inflammation (S. flexneri Sf9380 [3]; 48 h, mouse 1) | degree of keratoconjunctival inflammation (S. flexneri Sf9380 [3]; 48 h, mouse 2) | degree of keratoconjunctival inflammation (S. flexneri Sf9380 [3]; 48 h, mouse 3) | degree of keratoconjunctival inflammation (S. flexneri Sf9380 [3]; 48 h, mouse 4) | degree of keratoconjunctival inflammation (S. flexneri Sf9380 [3]; 48 h, mouse 5) | degree of keratoconjunctival inflammation (S. flexneri Sf9380 [3]; 48 h, mouse 6) | degree of keratoconjunctival inflammation (S. flexneri Sf9380 [3]; 72 h, mouse 1) | degree of keratoconjunctival inflammation (S. flexneri Sf9380 [3]; 72 h, mouse 2) | degree of keratoconjunctival inflammation (S. flexneri Sf9380 [3]; 72 h, mouse 3) | degree of keratoconjunctival inflammation (S. flexneri Sf9380 [3]; 72 h, mouse 4) | degree of keratoconjunctival inflammation (S. flexneri Sf9380 [3]; 72 h, mouse 5) | degree of keratoconjunctival inflammation (S. flexneri Sf9380 [3]; 72 h, mouse 6) | degree of keratoconjunctival inflammation (S. flexneri Sf9380 [3]; 96 h, mouse 1) | also measured
O=C(O)c1ccc(Cl)c(-c2ccc(/C=N/NC(=O)c3ccc(Br)cc3)o2)c1 [Compound 3] | 0.046 | + | + | + | + | + | + | + | − | − | − | + | − | − | + | − | − | − | − | − | invasion of HeLa cells by Sf9380 (bacteria recovered / inoculated) (S. flexneri Sf9380 [1]; 100 µmo/L, bacteria pre-treated 8 hours, untreated Sf9380 5.87×10^−2): 1.95×10^−2; effect on invasion of HeLa cells by Sf9380 (S. flexneri Sf9380 [1]; concentrations lower than 100 µmo/L): no obvious effects; times lower than untreated Sf9380, intracellular growth (S. flexneri Sf9380 [2]): 2.6 times; degree of keratoconjunctival inflammation (S. flexneri Sf9380 [3]; 96 h, mouse 2): −; degree of keratoconjunctival inflammation (S. flexneri Sf9380 [3]; 96 h, mouse 3): −; degree of keratoconjunctival inflammation (S. flexneri Sf9380 [3]; 96 h, mouse 4): −; degree of keratoconjunctival inflammation (S. flexneri Sf9380 [3]; 96 h, mouse 5): −; degree of keratoconjunctival inflammation (S. flexneri Sf9380 [3]; 96 h, mouse 6): −; eye finding at 24 hours post-infection (S. flexneri Sf9380 [3]): slight conjunctival inflammation; time by which keratoconjunctivitis was resolved (S. flexneri Sf9380 [3]): ≤ 72 h; keratoconjunctival inflammation (words, abstract) (S. flexneri Sf9380 [3]): no inflammation
O=C(O)c1cc(-c2ccc(-c3ccccc3Cl)o2)nc2ccc3ccccc3c12 [Compound 4] | 0.12 | + | + | + | + | + | − | + | − | − | − | + | − | + | − | − | − | − | − | − | effect on invasion of HeLa cells by Sf9380 (S. flexneri Sf9380 [1]; 100 µmo/L): no effect; effect on cell intracellular growth of Sf9380 (S. flexneri Sf9380 [2]): no obvious effect; degree of keratoconjunctival inflammation (S. flexneri Sf9380 [3]; 96 h, mouse 2): −; degree of keratoconjunctival inflammation (S. flexneri Sf9380 [3]; 96 h, mouse 3): −; degree of keratoconjunctival inflammation (S. flexneri Sf9380 [3]; 96 h, mouse 4): −; degree of keratoconjunctival inflammation (S. flexneri Sf9380 [3]; 96 h, mouse 5): −; degree of keratoconjunctival inflammation (S. flexneri Sf9380 [3]; 96 h, mouse 6): −; eye finding at 24 hours post-infection (S. flexneri Sf9380 [3]): slight conjunctival inflammation; time by which keratoconjunctivitis was resolved (S. flexneri Sf9380 [3]): ≤ 72 h; keratoconjunctival inflammation (words, abstract) (S. flexneri Sf9380 [3]): no inflammation
